In patent US11555031B2, “Compounds and methods for regulating insulin secretion” (The Broad Institute, Inc., priority 2017, dated 2023):
“Also recorded” adds a separate entry of the source.

Experiments:
Plasma stability, mouse = format: in vitro ADME
Experimental: Measurements were performed on human, mouse (CD-1) and rat (SD) microsomes to determine the t1/2, the plasma protein binding (“PPB”) and the plasma stability (“PS”).

cAMP = cAMP HTRF assay (Cisbio); format: cell-based; conditions: HTRF competition assay; increase in cAMP seen as decrease in signal
Text: FIG. 9 depicts the quantification of cAMP activity in cells treated with the indicated compound in a HTRF assay from Cisbio.
Further investigation into Compound 8 included measuring levels of the secondary messengers cAMP (FIG. 9) and IP-1 (not shown) in treated cells, as compounds that increase these secondary messengers are known to augment insulin secretion, though often in ways that are not beta-cell specific.
CellTiter-Glo (Promega) and the cAMP Dynamic-2 HTRF assay (Cisbio) were used according to the manufacturers' instructions. Luciferase secretion and CellTiter-Glo experiments were performed using a 1 hr incubation with compound, whereas the cAMP assay was performed using a 30 min incubation. Secretion experiments were run in KRB buffer; all other experiments were run in standard INS-1E medium.

Microsome t1/2, mouse = format: in vitro ADME; conditions: Mouse (CD-1) microsomes
Experimental: The pharmacokinetic activity profile of Compound 8 was assessed by various standard in vitro measurements. Measurements were performed on human, mouse (CD-1) and rat (SD) microsomes to determine the t1/2, the plasma protein binding (“PPB”) and the plasma stability (“PS”).

C57B6/J mice = experiment: In vivo efficacy, glucose tolerance test; set-up: species or system mouse; conditions: 2 mg/kg tail vein injection, compared to control (vehicle)
Experimental: Three-month-old male C57B6/J mice of body weight ranging from 20 to 25 g were housed in plastic polycarbonate cages. The animals were maintained at 25° C. with a 12-hour dark, 12-hour light schedule with food and water available ad libitum.
After two weeks of adaptation, the animals were randomly divided into two treatment groups (vehicle and Compound 8 in vehicle) with 5 mice per group. Mice were fasted for 16 hours (overnight) and basal blood glucose level was measured by tail vein nick using the AlphaTRAK 2 glucometer. Animals were given Compound 8 (2 mg/kg body weight) in vehicle or vehicle alone (7.5% NMP, 7.5% Solutol HS-15, 85% normal saline) by tail vein injection. Glucose tolerance tests (GTT) were performed 10 minutes after injection. Animals were given glucose at a dose of 1 g/kg body weight by intraperitoneal injection. Blood glucose was measured using the glucometer immediately before glucose injection, and at 15, 30, 60, and 120 minutes after injection (FIGS. 19A and 19C). At the 0, 15, and 30 minute time points, blood samples for insulin measurements were collected into EDTA-coated tubes and centrifuged at 9000 rpm to separate plasma, which was then stored at −80° C. until analysis. Insulin levels in plasma were analyzed using the ultra-sensitive mouse insulin ELISA kit (Crystal Chem) (FIGS. 19B and 19D). […]

INS-1E cells = experiment: Luciferase Insulin Secretion Assay (proinsulin-Gaussia luciferase reporter); format: cell-based, rat; conditions: INS-1E cells; 2.8 mM vs 16.7 mM glucose
Text: A high-throughput luminescent insulin secretion assay was developed and performed to identify compounds that amplified insulin secretion only in the presence of a permissive glucose environment (FIG. 3). The assay used in compound screening is described in International Patent Publication No. WO2013070796A3, PCT/US2012/063982, and in Burns et al., High-Throughput Luminescent Reporter of Insulin Secretion for Discovering Regulators of Pancreatic Beta-Cell Function. Cell Metab. 2015 Jan. 6; 21(1):126-37.
The assay is a luminescent insulin secretion assay created by inserting Gaussia luciferase within the C-peptide portion of the insulin prohormone. Gaussia luciferase was chosen because of its small size and bright luciferase signal. To ensure full activity of the luciferase, a version was used that was codon-optimized for expression in mammalian cells. The enzyme was flanked with additional cleavage sites for prohormone convertase 2 (PC2), such that no extra amino acids should be present on the ends of the enzyme after processing within the vesicles (FIG. 4). Rat (INS-1E; Merglen et al., 2004) beta-cell lines stably expressing the reporter construct were generated. Assays using this cell type are referred to herein as Luciferase Insulin Secretion Assay.
A search for glucose-dependent insulin secretagogues was conducting by screening 384,216 compounds at a single concentration (10 μM) in duplicate using the Luciferase Insulin Secretion Assay, to identify those that increase insulin secretion only in the presence of high glucose (11.1 mM) (FIG. 6). These assays were performed in 1536 well format. A Z′ factor of 0.35 was obtained with respect the positive control (300 μM IBMX). The cutoff value selected was 45% activation, which was 3-4 standard deviations above background (solid uppermost line; FIG. 6).
For standard secretion assays, INS-1E cells were plated in 96-well format, preincubated for 1 hr in Krebs Ringer Buffer (KRB) with 2.8 mM glucose, and then stimulated for 1 hr in fresh KRB containing varying amounts of glucose and compounds. Insulin or C-peptide concentration was determined using an ELISA (Mercodia), following the manufacturer's protocol. Luciferase activity was determined from the same samples by adding the coelenterazine substrate to the supernatant to a final concentration of 10 μM and reading on a standard plate reader (BioTek).
INS-1E cells were expanded to 80% confluence in their growth medium, washed once in PBS, and preincubated for 1 hr at 37° C. in KRB with 2.8 mM glucose. Cells were then dissociated, spun at 300×g for 2 min, resuspended in fresh KRB without glucose, and filtered through 40 μm mesh (Becton Dickinson). Next, the cells were counted and diluted in KRB to 1×10^6 cells per ml, and glucose was added as required for each experiment. Cells were then seeded in 384-well format, 3×10^4 cells in 30 μl per well, using a Multidrop Combi device (Thermo Scientific). Compounds were pinned into each well using a Vario robot (CyBio) to a final concentration of 30 μM, and the plates were then incubated for 2 hr at 37° C. For assays involving a transfer step, the plates were then centrifuged at 300×g for 2 min, and 20 μl of supernatant was transferred to a new 384-well plate. Coelenterazine substrate was then added to a final concentration of 10 μM, and luciferase activity was determined using a standard plate reader (BioTek).

PS (Plasma stability, mouse): 96.0 % remaining
half-life (Microsome t1/2, mouse): 4.6 h
Compound: Cc1cccc(NC(=O)c2ccc(OCc3c(C)noc3C)cc2)c1C [Compound 8]
cAMP level (cAMP): did not increase levels
glucose concentration area under the curve (AUC) (C57B6/J mice; GTT 1 g/kg glucose i.p.): decreased
insulinogenic index (C57B6/J mice; GTT): increase
glucose-dependent (glucose-stimulated) insulin secretion, luciferase reporter (INS-1E cells): significant increase in glucose-dependent insulin secretion; also recorded: dose-dependent effect; also recorded: more effective than even the positive control, forskolin
